Source: ChEMBL document CHEMBL4428061, “Effects of 5-O-Ribosylation of Aminoglycosides on Antimicrobial Activity and Selective Perturbation of Bacterial Translation” (J Med Chem, 2016)
Converted amounts (≈) assume the structure as drawn.

Columns and labels:
[1] = tested on: Pseudomonas aeruginosa; assay: Antimicrobial activity against Pseudomonas aeruginosa ATCC 47085 measured after 24 hrs by double-dilution method; assay type: functional; settings: ATCC 47085, 24 h
[2] = tested on: Pseudomonas aeruginosa; assay: Antimicrobial activity against Pseudomonas aeruginosa ATCC 27853 measured after 24 hrs by double-dilution method; assay type: functional; settings: ATCC 27853, 24 h
[3] = tested on: Haemophilus influenzae; assay: Antimicrobial activity against Haemophilus influenzae ATCC 49247 measured after 24 hrs by double-dilution method; assay type: functional; settings: ATCC 49247, 24 h
[4] = tested on: Haemophilus influenzae; assay: Antimicrobial activity against Haemophilus influenzae ATCC 10211 measured after 24 hrs by double-dilution method; assay type: functional; settings: ATCC 10211, 24 h
[5] = tested on: Klebsiella pneumoniae; assay: Antimicrobial activity against Klebsiella pneumoniae ATCC 13883 measured after 24 hrs by double-dilution method; assay type: functional; settings: ATCC 13883, 24 h
[6] = tested on: Klebsiella pneumoniae; assay: Antimicrobial activity against Klebsiella pneumoniae ATCC 10031 measured after 24 hrs by double-dilution method; assay type: functional; settings: ATCC 10031, 24 h
[7] = tested on: Escherichia coli; assay: Antimicrobial activity against Escherichia coli ATCC 25922 measured after 24 hrs by double-dilution method; assay type: functional; settings: ATCC 25922, 24 h
[8] = tested on: Acinetobacter baumannii; assay: Antimicrobial activity against Acinetobacter baumannii ATCC 19606 measured after 24 hrs by double-dilution method; assay type: functional; settings: ATCC 19606 = CIP 70.34 = JCM 6841, 24 h
[9] = tested on: Burkholderia cepacia; assay: Antimicrobial activity against aminoglycoside-resistant Burkholderia cepacia ATCC 25416 measured after 24 hrs by double-dilution method; assay type: functional; settings: ATCC 25416, 24 h
[10] = tested on: Escherichia coli; assay: Antimicrobial activity against aminoglycoside-resistant Escherichia coli ATCC BAA-2452 measured after 24 hrs by double-dilution method; assay type: functional; settings: ATCC BAA-2452, 24 h
[11] = tested on: Klebsiella pneumoniae; assay: Antimicrobial activity against aminoglycoside-resistant Klebsiella pneumoniae ATCC BAA-2470 measured after 24 hrs by double-dilution method; assay type: functional; settings: ATCC BAA-2470, 24 h
[12] = tested on: Ribosomal RNA A-site; assay: Binding affinity to 16S rRNA A-site in Escherichia coli S30 extract assessed as inhibition of translation measured after 30 mins by coupled transcription/translation-based luciferase reporter gene assay; assay type: nucleic-acid assay
[13] = Inhibition of cytosolic eukaryotic translation in rabbit reticulocyte S30 extract measured after 60 mins by coupled transcription/translation-based luciferase reporter gene assay; parameters: species or system Oryctolagus cuniculus
[14] = tested on: cytosolic eukaryotic translation versus 16S rRNA A-site; assay: Selectivity ratio, ratio of IC50 for cytosolic eukaryotic translation in rabbit reticulocyte S30 extract to IC50 for 16S rRNA A-site in Escherichia coli S30 extract; assay type: toxicity; settings: read-out: Ratio IC50
[15] = Acute toxicity in iv dosed rat; assay type: organism-based; settings: in vivo

Structure (SMILES) | MIC [1] [µg/mL] | MIC [2] [µg/mL] | MIC [3] [µg/mL] | MIC [4] [µg/mL] | MIC [5] [µg/mL] | MIC [6] [µg/mL] | MIC [7] [µg/mL] | MIC [8] [µg/mL] | MIC [9] [µg/mL] | MIC [10] [µg/mL] | MIC [11] [µg/mL] | IC50 [12] [µM] | IC50 [13] [µM] | selectivity ratio [14] | LD50 [15] [mg/kg]
NC[C@H]1O[C@H](O[C@H]2[C@H](O)[C@@H](O[C@H]3O[C@H](CO)[C@@H](O)[C@H](N)[C@H]3O)[C@H](N)C[C@@H]2N)[C@H](N)[C@@H](O)[C@@H]1O [BEKANAMYCIN] | > 32 | > 32 | 4 (≈ 8.27 µM) | 2 (≈ 4.14 µM) | 1 (≈ 2.07 µM) | 1 (≈ 2.07 µM) | 4 (≈ 8.27 µM) | 4 (≈ 8.27 µM) | > 32 | > 32 | > 32 | 0.04 | 28.9 | 722 | –
NC[C@H]1O[C@H](O[C@H]2[C@H](O)[C@@H](O)[C@H](N)C[C@@H]2N)[C@H](N)[C@@H](O)[C@@H]1O [NEAMINE] | > 32 | > 32 | 32 (≈ 99.3 µM) | 32 (≈ 99.3 µM) | 16 (≈ 49.6 µM) | 16 (≈ 49.6 µM) | 16 (≈ 49.6 µM) | > 32 | > 32 | > 32 | > 32 | 0.46 | 99 | 215 | 121 to 129
NC[C@H]1O[C@H](O[C@H]2[C@H](O)[C@@H](O)[C@H](N)C[C@@H]2N)[C@H](N)C[C@@H]1O | > 32 | > 32 | > 32 | > 32 | > 32 | > 32 | 16 (≈ 52.2 µM) | > 32 | > 32 | > 32 | > 32 | 0.43 | 121 | 282 | –
NC[C@H]1O[C@H](O[C@H]2[C@H](O[C@@H]3O[C@H](CO)[C@@H](O)[C@H]3O)[C@@H](O[C@H]3O[C@H](CO)[C@@H](O)[C@H](N)[C@H]3O)[C@H](N)C[C@@H]2N)[C@H](N)[C@@H](O)[C@@H]1O | > 32 | > 32 | 8 (≈ 13 µM) | 8 (≈ 13 µM) | 4 (≈ 6.5 µM) | 4 (≈ 6.5 µM) | 4 (≈ 6.5 µM) | > 32 | > 32 | > 32 | > 32 | 0.03 | 43.8 | 1460 | –
NC[C@H]1O[C@H](O[C@H]2[C@H](O)[C@@H](O[C@H]3O[C@H](CO)[C@@H](O)[C@H](N)[C@H]3O)[C@H](N)C[C@@H]2N)[C@H](O)[C@@H](O)[C@@H]1O [KANAMYCIN] | > 32 | > 32 | 8 (≈ 16.5 µM) | 8 (≈ 16.5 µM) | 4 (≈ 8.26 µM) | 4 (≈ 8.26 µM) | 4 (≈ 8.26 µM) | 8 (≈ 16.5 µM) | > 32 | > 32 | > 32 | 0.1 | 111 | 1110 | –
NCC[C@H](O)C(=O)N[C@@H]1C[C@H](N)[C@@H](O[C@H]2O[C@H](CN)[C@@H](O)[C@H](O)[C@H]2O)[C@H](O[C@@H]2O[C@H](CO)[C@@H](O)[C@H]2O)[C@H]1O[C@H]1O[C@H](CO)[C@@H](O)[C@H](N)[C@H]1O | > 32 | > 32 | > 32 | > 32 | > 32 | > 32 | > 32 | > 32 | > 32 | > 32 | > 32 | 6.44 | 193 | 30 | –
NC[C@H]1O[C@H](O[C@H]2[C@H](O)[C@@H](O[C@H]3O[C@H](CO)[C@@H](O)[C@H](N)[C@H]3O)[C@H](N)C[C@@H]2N)[C@H](N)C[C@@H]1O [TOBRAMYCIN] | 1 (≈ 2.14 µM) | 1 (≈ 2.14 µM) | 4 (≈ 8.56 µM) | 4 (≈ 8.56 µM) | 1 (≈ 2.14 µM) | 1 (≈ 2.14 µM) | 2 (≈ 4.28 µM) | 2 (≈ 4.28 µM) | > 32 | > 32 | > 32 | 0.07 | 42.3 | 605 | –
NC[C@H]1O[C@H](O[C@H]2[C@H](O[C@@H]3O[C@H](CO)[C@@H](O)[C@H]3O)[C@@H](O[C@H]3O[C@H](CO)[C@@H](O)[C@H](N)[C@H]3O)[C@H](N)C[C@@H]2N)[C@H](N)C[C@@H]1O | 2 (≈ 3.34 µM) | 4 (≈ 6.67 µM) | 8 (≈ 13.3 µM) | 8 (≈ 13.3 µM) | 2 (≈ 3.34 µM) | 2 (≈ 3.34 µM) | 4 (≈ 6.67 µM) | 32 (≈ 53.4 µM) | > 32 | > 32 | > 32 | 0.08 | 49.1 | 614 | –
NC[C@H]1O[C@H](O[C@H]2[C@H](O[C@@H]3O[C@H](CO)[C@@H](O)[C@H]3O)[C@@H](O)[C@H](N)C[C@@H]2N)[C@H](N)C[C@@H]1O | 4 (≈ 9.12 µM) | 4 (≈ 9.12 µM) | 4 (≈ 9.12 µM) | 4 (≈ 9.12 µM) | 8 (≈ 18.2 µM) | 4 (≈ 9.12 µM) | 2 (≈ 4.56 µM) | 32 (≈ 73 µM) | > 32 | > 32 | > 32 | 0.11 | 135 | 1230 | –
NCC[C@H](O)C(=O)N[C@@H]1C[C@H](N)[C@@H](O[C@H]2O[C@H](CN)[C@@H](O)[C@H](O)[C@H]2O)[C@H](O)[C@H]1O[C@H]1O[C@H](CO)[C@@H](O)[C@H](N)[C@H]1O [AMIKACIN] | 4 (≈ 6.83 µM) | 8 (≈ 13.7 µM) | 32 (≈ 54.6 µM) | 32 (≈ 54.6 µM) | 4 (≈ 6.83 µM) | 4 (≈ 6.83 µM) | 2 (≈ 3.42 µM) | 4 (≈ 6.83 µM) | > 32 | > 32 | > 32 | 0.07 | 64.6 | 923 | –
NC[C@H]1O[C@H](O[C@H]2[C@H](O[C@@H]3O[C@H](CO)[C@@H](O)[C@H]3O)[C@@H](O)[C@H](N)C[C@@H]2N)[C@H](N)[C@@H](O)[C@@H]1O [RIBOSTAMYCIN] | > 32 | > 32 | 8 (≈ 17.6 µM) | 8 (≈ 17.6 µM) | 8 (≈ 17.6 µM) | 8 (≈ 17.6 µM) | 4 (≈ 8.8 µM) | 16 (≈ 35.2 µM) | > 32 | > 32 | > 32 | 0.09 | 116 | 1290 | –
